Experimental data reported in patent US20030171329A1, “Stable compositions comprising tezacitabine” (priority 2002, published 2003).

What was measured:
human and rodent tumors = conditions: tumors of lung, colon, breast, prostate, pancreas, leukemias and lymphomas; cited from earlier work
[1] = Stability of FMdC at various concentrations in 100 mM sodium phosphate pH 9 (Example 3, HPLC); type: physicochemical
Experimental: In this study the stability of FMdC at various concentrations in 100 mM sodium phosphate pH 9 was studied. FMdC solutions were made up and pH adjusted to target with sodium hydroxide. Solution samples were placed in stoppered glass vials and stored at the various temperatures. […] Flow rate was 1.0 mL/min. FMdC solution samples were diluted in mobile phase to a nominal FMdC concentration of 80 μg/mL, then injected onto the column in a volume of 10 μL. Detection was by UV at 268 nm.

[2] = Effects of pH and storage temperature on stability of FMdC solutions (Example 1, HPLC); type: physicochemical; conditions: for FMdC content: 1 mg/mL
Experimental: In this example the effects of pH and storage temperature on the stability of tezacitabine (FMdC) solutions was evaluated. FMdC solutions were made up at 1 mg/mL in aqueous sodium phosphate buffers at pH 1, 3, 5, 7 and 9, then filled in sealed glass ampoules and placed at 5°, 25°, and 45° C. FMdC content was assessed at various times using an HPLC method. The column was a PACK ODS column (YMC, Inc, Wilmington, Del.) with a mobile phase of 55/40/5 (v/v/v) 0.086M NaH2PO4 (pH 7)/0.05M 1-pentanesulfonic acid sodium salt/acetonitrile. Detection was by UV at 268 nm. Flow rate was 1.5 mL/min and injection volume was 10 μL.

[3] = FMdC 2 mg/mL, 100 mM sodium phosphate pH 9, 25° C., 0 mon
[4] = FMdC 2 mg/mL, 100 mM sodium phosphate pH 9, 25° C., 6 mon
[5] = FMdC 2 mg/mL, 100 mM sodium phosphate pH 9, 25° C., 9 mon
[6] = FMdC 2 mg/mL, 100 mM sodium phosphate pH 9, 25° C., 20 mon
[7] = FMdC 2 mg/mL, 100 mM sodium phosphate pH 9, 40° C., 0 mon
[8] = FMdC 2 mg/mL, 100 mM sodium phosphate pH 9, 40° C., 3 mon
[9] = FMdC 2 mg/mL, 100 mM sodium phosphate pH 9, 40° C., 6 mon
[10] = FMdC 2 mg/mL, 100 mM sodium phosphate pH 9, 40° C., 9 mon
[11] = FMdC 2 mg/mL, 100 mM sodium phosphate pH 9, 50° C., 0 mon
[12] = FMdC 2 mg/mL, 100 mM sodium phosphate pH 9, 50° C., 0.5 mon
[13] = FMdC 2 mg/mL, 100 mM sodium phosphate pH 9, 50° C., 1.0 mon
[14] = FMdC 2 mg/mL, 100 mM sodium phosphate pH 9, 50° C., 2.0 mon
[15] = FMdC 2 mg/mL, 100 mM sodium phosphate pH 9, 50° C., 3.0 mon
[16] = FMdC 10 mg/mL, 100 mM sodium phosphate pH 9, 25° C., 0 mon
[17] = FMdC 10 mg/mL, 100 mM sodium phosphate pH 9, 25° C., 2.8 mon
[18] = FMdC 10 mg/mL, 100 mM sodium phosphate pH 9, 25° C., 4.0 mon
[19] = FMdC 10 mg/mL, 100 mM sodium phosphate pH 9, 25° C., 6.5 mon
[20] = FMdC 10 mg/mL, 100 mM sodium phosphate pH 9, 25° C., 7.9 mon
[21] = FMdC 10 mg/mL, 100 mM sodium phosphate pH 9, 25° C., 16 mon
[22] = FMdC 10 mg/mL, 100 mM sodium phosphate pH 9, 25° C., 23 mon
[23] = FMdC 10 mg/mL, 100 mM sodium phosphate pH 9, 40° C., 0 mon
[24] = FMdC 10 mg/mL, 100 mM sodium phosphate pH 9, 40° C., 2.0 mon
[25] = FMdC 10 mg/mL, 100 mM sodium phosphate pH 9, 40° C., 3.0 mon
[26] = FMdC 10 mg/mL, 100 mM sodium phosphate pH 9, 40° C., 3.7 mon
[27] = FMdC 10 mg/mL, 100 mM sodium phosphate pH 9, 40° C., 4.1 mon
[28] = FMdC 10 mg/mL, 100 mM sodium phosphate pH 9, 50° C., 0 mon
[29] = FMdC 10 mg/mL, 100 mM sodium phosphate pH 9, 50° C., 0.3 mon
[30] = FMdC 10 mg/mL, 100 mM sodium phosphate pH 9, 50° C., 0.7 mon
[31] = FMdC 10 mg/mL, 100 mM sodium phosphate pH 9, 50° C., 0.9 mon
[32] = FMdC 10 mg/mL, 100 mM sodium phosphate pH 9, 50° C., 1.4 mon
[33] = FMdC 10 mg/mL, 100 mM sodium phosphate pH 9, 50° C., 2.1 mon

## Nc1ccn([C@@H]2O[C@H](CO)[C@@H](O)/C2=C\F)c(=O)n1 [FMdC, (E)-2′-deoxy-2′-(fluoromethylene)cytidine]
Human and rodent tumors
  antitumor activity in animal studies: exhibited activity
[1]; 25° C., 2 and 10 mg/mL in 100 mM sodium phosphate pH 9
  stability in words: stable for over eighteen months
[1]; [3]
  FMdC: 100.0 % of initial
  pH: 9.18
[1]; [4]
  FMdC: 100.0 % of initial
  pH: 9.00
[1]; [5]
  FMdC: 100.5 % of initial
  pH: 9.03
[1]; [6]
  FMdC: 100.0 % of initial
  pH: 9.00
[1]; [7]
  FMdC: 100.0 % of initial
  pH: 9.18
[1]; [8]
  FMdC: 97.0 % of initial
  pH: 8.89
[1]; [9]
  FMdC: 92.5 % of initial
  pH: 8.55
[1]; [10]
  FMdC: 88.4 % of initial
  pH: 8.44
[1]; [11]
  FMdC: 100.0 % of initial
  pH: 9.18
[1]; [12]
  FMdC: 100.0 % of initial
  pH: 8.84
[1]; [13]
  FMdC: 97.4 % of initial
  pH: 8.84
[1]; [14]
  FMdC: 88.7 % of initial
  pH: 8.39
[1]; [15]
  FMdC: 80.4 % of initial
  pH: 8.16
[1]; [16]
  FMdC: 100.0 % of initial
  pH: 9.29
[1]; [17]
  FMdC: 98.9 % of initial
  pH: 9.25
[1]; [18]
  FMdC: 100.4 % of initial
  pH: 9.17
[1]; [19]
  FMdC: 99.3 % of initial
  pH: 9.09
[1]; [20]
  FMdC: 98.1 % of initial
  pH: 9.06
[1]; [21]
  FMdC: 97.3 % of initial
  pH: 8.73
[1]; [22]
  FMdC: 97.1 % of initial
  pH: 8.74
[1]; [23]
  FMdC: 100.0 % of initial
  pH: 9.29
[1]; [24]
  FMdC: 98.1 % of initial
  pH: 8.60
[1]; [25]
  FMdC: 95.8 % of initial
  pH: 8.40
[1]; [26]
  FMdC: 96.9 % of initial
  pH: 8.19
[1]; [27]
  FMdC: 94.9 % of initial
  pH: 8.08
[1]; [28]
  FMdC: 100.0 % of initial
  pH: 9.29
[1]; [29]
  FMdC: 99.6 % of initial
  pH: 8.75
[1]; [30]
  FMdC: 94.4 % of initial
  pH: 8.24
[1]; [31]
  FMdC: 89.5 % of initial
  pH: 7.91
[1]; [32]
  FMdC: 82.0 % of initial
  pH: 7.52
[1]; [33]
  FMdC: 67.4 % of initial
  pH: 7.01
[2]; sodium phosphate pH 1, 5° C., 0 days
  FMdC content: 100.0 % of initial
[2]; sodium phosphate pH 1, 5° C., 1 day
  FMdC content: 93.2 % of initial
[2]; sodium phosphate pH 1, 5° C., 14 days
  FMdC content: 70.0 % of initial
[2]; sodium phosphate pH 1, 5° C., 29 days
  FMdC content: 47.1 % of initial
[2]; sodium phosphate pH 1, 25° C., 0 days
  FMdC content: 100.0 % of initial
[2]; sodium phosphate pH 1, 25° C., 1 day
  FMdC content: 45.7 % of initial
[2]; sodium phosphate pH 1, 25° C., 7 days
  FMdC content: 4.5 % of initial
[2]; sodium phosphate pH 1, 45° C., 0 days
  FMdC content: 100.0 % of initial
[2]; sodium phosphate pH 1, 45° C., 1 day
  FMdC content: 3.9 % of initial
[2]; sodium phosphate pH 3, 5° C., 0 days
  FMdC content: 100.0 % of initial
[2]; sodium phosphate pH 3, 5° C., 1 day
  FMdC content: 89.4 % of initial
[2]; sodium phosphate pH 3, 5° C., 14 days
  FMdC content: 73.3 % of initial
[2]; sodium phosphate pH 3, 5° C., 29 days
  FMdC content: 51.7 % of initial
[2]; sodium phosphate pH 3, 25° C., 0 days
  FMdC content: 100.0 % of initial
[2]; sodium phosphate pH 3, 25° C., 1 day
  FMdC content: 50.5 % of initial
[2]; sodium phosphate pH 3, 25° C., 7 days
  FMdC content: 4.7 % of initial
[2]; sodium phosphate pH 3, 45° C., 0 days
  FMdC content: 100.0 % of initial
[2]; sodium phosphate pH 3, 45° C., 1 day
  FMdC content: 4.4 % of initial
[2]; sodium phosphate pH 5, 5° C., 0 days
  FMdC content: 100.0 % of initial
[2]; sodium phosphate pH 5, 5° C., 7 days
  FMdC content: 95.8 % of initial
[2]; sodium phosphate pH 5, 5° C., 14 days
  FMdC content: 98.2 % of initial
[2]; sodium phosphate pH 5, 5° C., 29 days
  FMdC content: 93.5 % of initial
[2]; sodium phosphate pH 5, 25° C., 0 days
  FMdC content: 100.0 % of initial
[2]; sodium phosphate pH 5, 25° C., 7 days
  FMdC content: 73.0 % of initial
[2]; sodium phosphate pH 5, 25° C., 14 days
  FMdC content: 56.3 % of initial
[2]; sodium phosphate pH 5, 25° C., 29 days
  FMdC content: 28.6 % of initial
[2]; sodium phosphate pH 5, 45° C., 0 days
  FMdC content: 100.0 % of initial
[2]; sodium phosphate pH 5, 45° C., 7 days
  FMdC content: 2.5 % of initial
[2]; sodium phosphate pH 7, 5° C., 0 days
  FMdC content: 100.0 % of initial
[2]; sodium phosphate pH 7, 5° C., 7 days
  FMdC content: 100.8 % of initial
[2]; sodium phosphate pH 7, 5° C., 14 days
  FMdC content: 100.6 % of initial
[2]; sodium phosphate pH 7, 5° C., 29 days
  FMdC content: 99.8 % of initial
[2]; sodium phosphate pH 7, 25° C., 0 days
  FMdC content: 100.0 % of initial
[2]; sodium phosphate pH 7, 25° C., 7 days
  FMdC content: 100.4 % of initial
[2]; sodium phosphate pH 7, 25° C., 14 days
  FMdC content: 99.4 % of initial
[2]; sodium phosphate pH 7, 25° C., 29 days
  FMdC content: 98.8 % of initial
[2]; sodium phosphate pH 7, 45° C., 0 days
  FMdC content: 100.0 % of initial
[2]; sodium phosphate pH 7, 45° C., 7 days
  FMdC content: 96.5 % of initial
[2]; sodium phosphate pH 7, 45° C., 14 days
  FMdC content: 92.0 % of initial
[2]; sodium phosphate pH 7, 45° C., 29 days
  FMdC content: 82.3 % of initial
[2]; sodium phosphate pH 9, 5° C., 0 days
  FMdC content: 100.0 % of initial
[2]; sodium phosphate pH 9, 5° C., 7 days
  FMdC content: 100.4 % of initial
[2]; sodium phosphate pH 9, 5° C., 14 days
  FMdC content: 100.8 % of initial
[2]; sodium phosphate pH 9, 5° C., 29 days
  FMdC content: 100.4 % of initial
[2]; sodium phosphate pH 9, 25° C., 0 days
  FMdC content: 100.0 % of initial
[2]; sodium phosphate pH 9, 25° C., 7 days
  FMdC content: 100.5 % of initial
[2]; sodium phosphate pH 9, 25° C., 14 days
  FMdC content: 99.4 % of initial
[2]; sodium phosphate pH 9, 25° C., 29 days
  FMdC content: 100.4 % of initial
[2]; sodium phosphate pH 9, 45° C., 0 days
  FMdC content: 100.0 % of initial
[2]; sodium phosphate pH 9, 45° C., 7 days
  FMdC content: 100.1 % of initial
[2]; sodium phosphate pH 9, 45° C., 14 days
  FMdC content: 98.7 % of initial
[2]; sodium phosphate pH 9, 45° C., 29 days
  FMdC content: 96.5 % of initial
[2]; low pH (pH 1 and 3), even under refrigeration
  stability in words: very unstable
[2]; pH 9, compared with pH 1 to 7
  stability in words: most stable
